Experimental data as given in paper PMC5234776, “Study of the Antimicrobial Activity of Tilapia Piscidin 3 (TP3) and TP4 and Their Effects on Immune Functions in Hybrid Tilapia (Oreochromis spp.)” (PLoS ONE, 2017).
≈ marks a conversion by molar mass, not a printed value. Like-named read-outs stand apart in the source and are kept apart here. Peptide text beside a SMILES is read from it.

Assays:
[1] = tested on: V. vulnificus; experiment: microbe, parasite or virus in culture; assay type: cell-based, Vibrio vulnificus
Protocol: (§1) We determined the MICs of TP3, TP4, kanamycin, and ampicillin against V. vulnificus using a broth microdilution method in accordance with NCCLS guidelines. To measure the killing efficiencies of TP3 and TP4 against V. vulnificus, we prepared TP3 or TP4 solutions at MIC concentrations of 0.5×, 1×, and 2× and these solutions with equal volumes of V. vulnificus (1×10^6 CFU/ml) to each well of a 96-well plate. The plates were incubated at 28°C for 0, 60, 120, 180, 360, 540, 720, or 1440 minutes, and after the incubation period, 50 μL of each bacterial solution were plated on a TCBS plate to obtain viable cell counts. Broth grown in the absence of peptides was used as a negative control. The results were determined using triplicate independent experiments.
First, we determined the minimum MICs and minimum bactericidal concentrations (MBCs) of TP3 or TP4 against V. vulnificus.

[2] = tested on: V. vulnificus; experiment: Tilapia survival, peptide injected before V. vulnificus infection (pre-treatment); assay type: in vivo, tilapia (Oreochromis spp.); settings: 7 days
Description: (§2) We obtained tilapia (Oreochromis spp.) from a commercial aquaculture company. The fish body lengths were 4.0±0.6 cm, and body weights were 3.1±0.3 g. The tilapia were maintained in a 2000 liter indoor aquarium at the Marine Research Station, Ilan, Taiwan. To study the efficacy with which TP3 and TP4 protect tilapia against V. vulnificus, we injected the bacteria into the abdominal cavities (peritoneum) of the tilapia using a syringe (29 Gx1/2, Terumo Medical, Elkton, MD, USA); control tilapia were injected with PBS-buffered saline. For the first trial in each group, we used 15 tilapia: (a) group 1 was injected with V. vulnificus (2×10^5 CFU/fish) only; (b) group 2 was injected with PBS only; and (c) group 3 was injected with bacterial cells (2×10^5 CFU/fish) combined with a mixture containing both TP3 and TP4 peptides (at 0.1, 1, 10, or 20 μg/fish) that had been incubated for 60 minutes at 28°C. Next, at 168 hours after the first injection, the tilapia that survived the first co-treatment were again injected with V. vulnificus (2×10^5 CFU/fish). For this second challenge, we chose tilapia with similar body weights and ages that had not been previously treated with V. vulnificus, TP3 or TP4 for the V. vulnificus-only group (control group), and we recorded the survival rate over seven days. For the third trial, each group contained 15 tilapia, each of which was injected with 20, 30, or 40 μg of TP3 or TP4 followed by V. vulnificus (2×10^5 CFU/fish) after 0.5, 1, or 2 hours. The survival rate was recorded after seven days. For the fourth trial, each group contained 15 tilapia, each of which was first injected with V. vulnificus (2×10^5 CFU/fish) and then with 20, 30, or 40 μg of TP3 or TP4 after 0.5, 1, or 2 hours; the survival rate was recorded over seven days. Each experimental group consisted of 15 fish per treatment and three replicates (triplicate groups of 15 fish per treatment). We performed multiple group comparisons by analysis of variance (ANOVA) using SPSS software, and pairwise comparisons of groups were performed using a t-test. Significant differences were indicated as *P<0.05 and **P<0.01.

[3] = tested on: V. vulnificus; experiment: Tilapia survival, re-challenge of co-treatment survivors with V. vulnificus; assay type: in vivo, tilapia (Oreochromis spp.); settings: survivors of 20 μg/fish co-treatment, followed seven days
Description: as §2
The antimicrobial activities of TP3 and TP4 peptides were analyzed in tilapia infected with lethal amounts of bacteria. Different amounts of V. vulnificus were injected into the abdominal cavities of the fish, and survival rates were recorded as cumulative percentages (S1 Fig). To determine whether TP3 and TP4 had any toxic effects on the tilapia, we injected different doses of TP3 and TP4 (0.1, 1, 10, 20, 30, 40, or 50 μg/fish) into the abdominal cavity and recorded the cumulative survival percentage of the fish (S2 Fig). We also co-treated tilapia with different doses (0.1, 1, 10, 20 μg/fish) of TP3 or TP4 combined with 2x10^4 CFU of V. vulnificus to evaluate tilapia survival following treatment. […] After 14, 21, or 28 days following the first co-treatment with TP3, the tilapia that survived in the 20 μg/fish TP3 experimental group were injected with a second dose of 2x10^4 CFU of V. vulnificus, and the survival rates were measured for another seven days. […] In the co-treatment experiments, at 14, 21, or 28 days after the first co-treatment with TP4, the surviving tilapia in the 20 μg/fish TP4 experimental group received a second injection of 2x10^4 CFU of V. vulnificus, and the survival rates were measured for another seven days.

[4] = tested on: V. vulnificus; experiment: microbe, parasite or virus in culture; assay type: cell-based, Vibrio vulnificus; settings: for antimicrobial activity in the pH 2 solution: pH 2, in words
Protocol: To understand the effects of pH on TP3 or TP4, the reagents were dissolved in ddH2O, 1 M HCl or 1 M NaOH to obtain solutions with different pH values. For the temperature-dependent functional study, the TP3 or TP4 was added to a solution in a water bath (Basic life, model BL3002, Taiwan) and incubated for 60 minutes at different temperatures (40, 60, 80, or 100°C). To evaluate the effects of TP3 and TP4 on pepsin and trypsin function, each peptide was incubated for 10 or 30 minutes with different concentrations of pepsin or trypsin (0.1, 1, or 10 μg/ml), and we determined the MIC values after incubating these solutions with cells at 28°C for 720 minutes, according to a previously described MIC experimental protocol.

[5] = tested on: V. vulnificus; experiment: Membrane perturbation, NPN uptake; assay type: cell-based, Vibrio vulnificus; settings: 1×10^6 CFU/ml, 30 minutes, 40 μmol/L NPN; kanamycin: slight increase only
Protocol: We used previously reported methods for the membrane perturbation assay. Briefly, a single colony of V. vulnificus was cultured in TSB medium for 480 minutes at 28°C, and the adjusted culture (1×10^6 CFU/ml) was aliquoted into different tubes with or without TP4 or TP3. After incubating the cells for 30 minutes, we added 40 μmol/L 1-N-phenylnaphthylamine (NPN) and continued to incubate the cells. Tubes containing PBS with NPN and bacterial cells with NPN served as controls. The NPN fluorescence intensity was detected using a fluorescence ELISA reader. All experiments were performed in triplicate, and the results are expressed as means with standard errors (SE).

[6] = tested on: V. vulnificus; experiment: Time-kill analysis; assay type: cell-based, Vibrio vulnificus; settings: for eradication of bacteria: 60 minutes of exposure at 2×MIC, in words; for time after which V. vulnificus CFUs recovered: peptide at 1xMIC
Protocol: as §1

[7] = peptide 20 μg/fish 0.5 hours before V. vulnificus
[8] = peptide 20 μg/fish 1 hour before V. vulnificus
[9] = peptide 20 μg/fish 2 hours before V. vulnificus
[10] = peptide 30 μg/fish 0.5 hours before V. vulnificus
[11] = peptide 30 μg/fish 1 hour before V. vulnificus
[12] = peptide 30 μg/fish 2 hours before V. vulnificus
[13] = peptide 40 μg/fish 0.5 hours before V. vulnificus
[14] = peptide 40 μg/fish 1 hour before V. vulnificus
[15] = peptide 40 μg/fish 2 hours before V. vulnificus

Structure (SMILES) | MBC [1] [µg/mL] | survival rate [2, 7] [%] | survival rate [2, 8] [%] | survival rate [2, 9] [%] | survival rate [2, 10] [%] | survival rate [2, 11] [%] | survival rate [2, 12] [%] | survival rate [2, 13] [%] | survival rate [2, 14] [%] | survival rate [2, 15] [%] | survival rate after second injection of V. vulnificus ([3]; re-challenged after 14 days) [%] | survival rate after second injection of V. vulnificus ([3]; re-challenged after 21 days) [%] | survival rate after second injection of V. vulnificus ([3]; re-challenged after 28 days) [%] | antimicrobial activity in the pH 2 solution [4] | MBC ([4]; pH 7) [µg/mL] | concentration that increased NPN fluorescence [5] [µg/mL] | eradication of bacteria [6] | time after which V. vulnificus CFUs recovered [6] | MIC ([4]; pH 7) [µg/mL]
CC[C@H](C)[C@H](NC(=O)[C@H](CC(C)C)NC(=O)[C@H](CO)NC(=O)[C@H](Cc1c[nH]cn1)NC(=O)[C@@H](NC(=O)[C@H](Cc1c[nH]cn1)NC(=O)[C@H](CCCCN)NC(=O)CNC(=O)[C@@H](NC(=O)[C@H](CO)NC(=O)[C@H](Cc1ccccc1)NC(=O)[C@H](CC(C)C)NC(=O)CNC(=O)CNC(=O)[C@@H](NC(=O)[C@@H](NC(=O)[C@H](Cc1c[nH]cn1)NC(=O)[C@H](Cc1c[nH]cn1)NC(=O)[C@@H](NC(=O)[C@@H](N)Cc1ccccc1)[C@@H](C)CC)[C@@H](C)CC)[C@@H](C)CC)C(C)C)[C@@H](C)CC)C(=O)N[C@@H](Cc1c[nH]cn1)C(=O)NCC(=O)N[C@@H](Cc1c[nH]cn1)C(=O)O [TP3, tilapia piscidin 3] (H-FIHHIIGGLFSVGKHIHSLIHGH-OH) | 62.5 (≈ 24.4 µM) | 13.3 | 2.2 | 2.2 | 28.9 | 11.8 | 8.9 | 26.7 | 8.9 | 4.4 | 17.8 | 26.7 | 35.6 | Neither the antibiotics nor TP3 and TP4 showed any antimicrobial activity | 62.5 (≈ 24.4 µM) | 60 | completely eradicated | approximately 6 hours | –
CC[C@H](C)[C@H](NC(=O)[C@H](C)NC(=O)[C@H](CCCCN)NC(=O)CNC(=O)[C@H](C)NC(=O)[C@H](CO)NC(=O)[C@H](Cc1ccccc1)NC(=O)[C@H](CC(C)C)NC(=O)CNC(=O)CNC(=O)[C@@H](NC(=O)[C@@H](NC(=O)[C@H](Cc1c[nH]cn1)NC(=O)[C@H](Cc1c[nH]cn1)NC(=O)[C@@H](NC(=O)[C@@H](N)Cc1ccccc1)[C@@H](C)CC)[C@@H](C)CC)[C@@H](C)CC)C(=O)N[C@@H](Cc1c[nH]cn1)C(=O)N[C@@H](CCCNC(=N)N)C(=O)N[C@@H](CC(C)C)C(=O)N[C@H](C(=O)N[C@@H](CCCNC(=N)N)C(=O)N[C@@H](CCCNC(=N)N)C(=O)N[C@@H](CCCNC(=N)N)C(=O)N[C@@H](CCCNC(=N)N)C(=O)N[C@@H](CCCNC(=N)N)C(=O)O)[C@@H](C)CC [TP4, tilapia piscidin 4] (H-FIHHIIGGLFSAGKAIHRLIRRRRR-OH) | 7.8 (≈ 2.62 µM) | 37.8 | 4.4 | 0 | 31.1 | 20 | 2.2 | 11.1 | 4.4 | 4.4 | 17.8 | 37.8 | 42.2 | Neither the antibiotics nor TP3 and TP4 showed any antimicrobial activity | 7.8 (≈ 2.62 µM) | 8 | completely eradicated | ~9 h | 7.8 (≈ 2.62 µM)
